Measured values taken from patent US5721366A, “Platelet aggregation inhibitors” (G. D. Searle & Co, priority 1995, dated 1998).
Structures can show the parent of a compound that is named as a salt.

How the values were obtained:
[1] = tested on: Human platelet aggregation (platelet-rich plasma); experiment: Inhibition of Human Platelet Aggregation (PRP), collagen-induced; format: cell-based; details: collagen-induced aggregation (4 μg/ml final), 37° C.
Procedure: Inhibition of Human Platelet Aggregation (PRP)
Platelet rich plasma was prepared from citrated whole blood (3.8% Na citrate, 1:10 in 30 ml blood) withdrawn from the antecubital vein (n=1). PRP was prepared by centrifugation (Sorvall RC3C, DuPont, Wilmington, Del.) of the whole blood at 1000×g for 3 min, allowing the centrifuge to stop without braking. Platelet poor plasma (PPP) was prepared by centrifugation of PRP at 2000×g for 10 min. […] Aggregation was measured in a 4 channel aggregometer (model PAP-4C, Bio/Data Corp., Hatboro, Pa.). Aliquots of PPP were used to standardize the aggregometer for measurement of maximum light transmission. Platelet aggregation was measured as an increase in light transmission.
PRP (430 μl aliquot) was preincubated with 50 μl of various concentrations of compound (dissolved in 10% ETOH/water at a concentration of 10^-3 M. Compounds were diluted to desired concentration with 0.9% NaCl) for 2 min at 37° C., with stirring at 900 rpm, in the aggregometer. The stock collagen (Chronolog, Havertown, Pa., equine tendon) was diluted 1:10 with a 5% dextrose and water solution. The vehicle control response was obtained by adding 20 μl diluted collagen to the untreated aliquot of PRP+50 μl saline. Final collagen concentration was 4 μg/ml. Aggregation was recorded for 3 min following the addition of collagen. […] Percent inhibition was calculated by comparing treated and control samples. IC50 's were calculated graphically from dose-response curves. Average values and standard errors were calculated using the IC50 's of the individual experiments. Statistical analyses were done by an unequal variance, unpaired Student's t-test [Minitab Reference Manual, Minitab Inc., State College, Pa. (1988)]. Statistical significance was assumed when p<0.05 was found.
(§1) (NT in the following table indicates not tested.)

[2] = tested on: Dog platelet aggregation (platelet-rich plasma); experiment: In-Vitro Platelet Aggregation in PRP (Dog), collagen-induced; format: cell-based; details: collagen-induced aggregation (33 μg/ml final), 37° C.
Procedure: In-Vitro Platelet Aggregation in PRP--(Dog)
Healthy male or female dogs were fasted for 8 hours prior to drawing blood; then 60 ml whole blood was collected using a butterfly needle and 30 cc plastic syringe with 6 ml of 0.129M buffered sodium citrate (3.8%) (drawn from a minimum of 3 dogs and blood was pooled). The syringe was rotated carefully as blood was drawn to mix the citrate. Platelet-rich plasma (PRP) was prepared by centrifugation at 975×g for 3.17 minutes at room temperature, allowing the centrifuge to coast to a stop without braking. The PRP was removed from the blood with a plastic pipette and placed in a plastic capped 50 ml Corning conical sterile centrifuge tube which was held at room temperature. Platelet poor plasma (PPP) was prepared by centrifuging the remaining blood at 2000×g for 15 minutes at room temperature allowing the centrifuge to coast to a stop without braking. The platelet count in the PRP was routinely 2-4×10^8 platelets per ml. 400 μl of the PRP preparation and 50 μl of the compound to be tested or saline were preincubated for 2 minutes at 37° C. in a BioData aggregometer (BioData, Horsham, Pa.). 50 μl of collagen (diluted 1:3 with 5% dextrose and water solution, 33 μg/ml final concentration, equine tendon, Chronolog, Havertown, Pa.) was added to the cuvettes and the aggregation was monitored for 3 minutes. All compounds are tested in duplicate.
Results are calculated as follows:
Percent of control=[(maximal OD minus initial OD of compound) divided by (maximal OD minus initial OD of control saline)]×100. The % inhibition=100-(percent of control).
as §1

[3] = Canis lupus familiaris, Platelet

Row | SMILES | IC50 [1] [nM] | IC50 [2] [nM] | IC50 ([1]; Homo sapiens, Platelet) [nM] | IC50 [2, 3] [nM]
1 | C=C[C@H](CC(=O)O)NC(=O)CC1CCN(c2ccc(C(=N)N)cc2)C1=O (single isomer, unassigned; isomer b) [Example 6, 3S-[[[1-[4-(aminoiminomethyl)phenyl]-2-oxo-3-pyrrolidinyl]acetyl]amino]-4-pentenoic acid, enantiomerically enriched isomer B] | 850 | 1600 |  | 
2 | N=C(N)c1ccc(N2CCC(CC(=O)NCCC(=O)O)C2=O)cc1 (stereo not drawn) [Example 8, 3-[[[1-[4-(aminoiminomethyl)phenyl]-2-oxo-3-pyrrolidinyl]acetyl]amino]propionic acid] |  |  | 180 | 180
3 | N=C(N)c1ccc(N2CCC(CC(=O)NCCC(=O)O)C2=O)cc1 (single isomer, unassigned; isomer b) [Example 36, 3-[[[1-[4-(aminoiminomethyl)phenyl]-2-oxo-3-pyrrolidinyl]acetyl]amino]propionic acid, trifluoroacetate, enantiomerically enriched isomer B.] |  |  | 110 | 91
4 | C=C[C@H](CC(=O)O)NC(=O)NC1CCN(c2ccc(C(=N)N)cc2)C1=O (stereo partly drawn) [Example 18, 3(S)-[[[[1-[4-(aminoiminomethyl]phenyl]-2-oxo-3-pyrrolidinyl]amino]carbonyl]amino]-4-pentenoic acid] |  |  | 100 | 170
5 | CC(CC(=O)O)NC(=O)CC1CCN(c2ccc(C(=N)N)cc2)C1=O (stereo not drawn) [Example 10, 3-[[[-[4-(aminoiminomethyl)phenyl]-2-oxo-3-pyrrolidinyl]acetyl]amino]butanoic acid] |  |  | 260 | 170
6 | C[C@@H](CCCC1CCN(c2ccc(C(=N)N)cc2)C1=O)CC(=O)O (stereo partly drawn) [Example 19, 1-[4-(aminoiminomethyl)phenyl]-βS-methyl-2-oxo-3-pyrrolidinehexanoic acid, monohydrochloride.] |  |  | 90 | 150
